In patent US20170051149A1, “AZOARYLS AS REVERSIBLY MODULATABLE TUBULIN INHIBITORS” (ECOLE NORMALE SUPERIEURE DE LYON, priority 2014, published 2017):

Tested on: HEK-293T cells
Assay: MTT assay, light-dependent cell proliferation
Format: cell-based
Settings: 72 h

COc1ccc(N=Nc2cc(OC)c(OC)c(OC)c2)cc1O [I.1, 2-methoxy-5-((3,4,5-trimethoxyphenyl)diazenyl)phenol]
fold growth relative to cosolvent control (MTT) (100 nM, 390 nm, 0.35 s every 2 min): 1.31 | fold growth relative to cosolvent control (MTT) (100 nM, 390 nm, 0.35s then 490 nm, 3 s (rescue) every 2 min): 1.26 | fold growth relative to cosolvent control (MTT) (100 nM, 410 nm, 0.35 s every 2 min): 1.19 | fold growth relative to cosolvent control (MTT) (100 nM, 410 nm, 0.35 s then 505 nm, 3 s (rescue) every 2 min): 1.29 | fold growth relative to cosolvent control (MTT) (100 nM, 475 nm, 3 s every 2 min): 1.11 | fold growth relative to cosolvent control (MTT) (100 nM, 490 nm, 3 s every 2 min): 1.10 | fold growth relative to cosolvent control (MTT) (100 nM, 505 nm, 3 s every 2 min): 1.22 | fold growth relative to cosolvent control (MTT) (100 nM, 525 nm, 3 s every 2 min): 1.12 | fold growth relative to cosolvent control (MTT) (100 nM, Dark): 1.29 | fold growth relative to cosolvent control (MTT) (400 nM, 390 nm, 0.35 s every 2 min): 0.67 | fold growth relative to cosolvent control (MTT) (400 nM, 390 nm, 0.35s then 490 nm, 3 s (rescue) every 2 min): 0.69 | fold growth relative to cosolvent control (MTT) (400 nM, 410 nm, 0.35 s every 2 min): 0.70 | fold growth relative to cosolvent control (MTT) (400 nM, 410 nm, 0.35 s then 505 nm, 3 s (rescue) every 2 min): 0.86 | fold growth relative to cosolvent control (MTT) (400 nM, 475 nm, 3 s every 2 min): 0.55 | fold growth relative to cosolvent control (MTT) (400 nM, 490 nm, 3 s every 2 min): 0.69 | fold growth relative to cosolvent control (MTT) (400 nM, 505 nm, 3 s every 2 min): 0.87 | fold growth relative to cosolvent control (MTT) (400 nM, 525 nm, 3 s every 2 min): 0.82 | fold growth relative to cosolvent control (MTT) (400 nM, Dark): 0.87 | fold growth relative to cosolvent control (MTT) (800 nM, 390 nm, 0.35 s every 2 min): 0.38 | fold growth relative to cosolvent control (MTT) (800 nM, 390 nm, 0.35s then 490 nm, 3 s (rescue) every 2 min): 0.33 | fold growth relative to cosolvent control (MTT) (800 nM, 410 nm, 0.35 s every 2 min): 0.51 | fold growth relative to cosolvent control (MTT) (800 nM, 410 nm, 0.35 s then 505 nm, 3 s (rescue) every 2 min): 0.67 | fold growth relative to cosolvent control (MTT) (800 nM, 475 nm, 3 s every 2 min): 0.37 | fold growth relative to cosolvent control (MTT) (800 nM, 490 nm, 3 s every 2 min): 0.43 | fold growth relative to cosolvent control (MTT) (800 nM, 505 nm, 3 s every 2 min): 0.92 | fold growth relative to cosolvent control (MTT) (800 nM, 525 nm, 3 s every 2 min): 1.00 | fold growth relative to cosolvent control (MTT) (800 nM, Dark): 0.95 | fold growth relative to cosolvent control (MTT) (1.5 μM, 390 nm, 0.35 s every 2 min): 0.22 | fold growth relative to cosolvent control (MTT) (1.5 μM, 390 nm, 0.35s then 490 nm, 3 s (rescue) every 2 min): 0.18 | fold growth relative to cosolvent control (MTT) (1.5 μM, 410 nm, 0.35 s every 2 min): 0.25 | fold growth relative to cosolvent control (MTT) (1.5 μM, 410 nm, 0.35 s then 505 nm, 3 s (rescue) every 2 min): 0.25 | fold growth relative to cosolvent control (MTT) (1.5 μM, 475 nm, 3 s every 2 min): 0.19 | fold growth relative to cosolvent control (MTT) (1.5 μM, 490 nm, 3 s every 2 min): 0.19 | fold growth relative to cosolvent control (MTT) (1.5 μM, 505 nm, 3 s every 2 min): 0.42 | fold growth relative to cosolvent control (MTT) (1.5 μM, 525 nm, 3 s every 2 min): 0.66 | fold growth relative to cosolvent control (MTT) (1.5 μM, Dark): 0.71 | fold growth relative to cosolvent control (MTT) (3 μM, 390 nm, 0.35 s every 2 min): 0.17 | fold growth relative to cosolvent control (MTT) (3 μM, 390 nm, 0.35s then 490 nm, 3 s (rescue) every 2 min): 0.14 | fold growth relative to cosolvent control (MTT) (3 μM, 410 nm, 0.35 s every 2 min): 0.18 | fold growth relative to cosolvent control (MTT) (3 μM, 410 nm, 0.35 s then 505 nm, 3 s (rescue) every 2 min): 0.22 | fold growth relative to cosolvent control (MTT) (3 μM, 475 nm, 3 s every 2 min): 0.15 | fold growth relative to cosolvent control (MTT) (3 μM, 490 nm, 3 s every 2 min): 0.20 | fold growth relative to cosolvent control (MTT) (3 μM, 505 nm, 3 s every 2 min): 0.27 | fold growth relative to cosolvent control (MTT) (3 μM, 525 nm, 3 s every 2 min): 0.64 | fold growth relative to cosolvent control (MTT) (3 μM, Dark): 0.66 | fold growth relative to cosolvent control (MTT) (6 μM, 390 nm, 0.35 s every 2 min): 0.29 | fold growth relative to cosolvent control (MTT) (6 μM, 390 nm, 0.35s then 490 nm, 3 s (rescue) every 2 min): 0.18 | fold growth relative to cosolvent control (MTT) (6 μM, 410 nm, 0.35 s every 2 min): 0.23 | fold growth relative to cosolvent control (MTT) (6 μM, 410 nm, 0.35 s then 505 nm, 3 s (rescue) every 2 min): 0.30 | fold growth relative to cosolvent control (MTT) (6 μM, 475 nm, 3 s every 2 min): 0.21 | fold growth relative to cosolvent control (MTT) (6 μM, 490 nm, 3 s every 2 min): 0.34 | fold growth relative to cosolvent control (MTT) (6 μM, 505 nm, 3 s every 2 min): 0.27 | fold growth relative to cosolvent control (MTT) (6 μM, 525 nm, 3 s every 2 min): 0.39 | fold growth relative to cosolvent control (MTT) (6 μM, Dark): 0.80 | fold growth relative to cosolvent control (MTT) (15 μM, 390 nm, 0.35 s every 2 min): 0.28 | fold growth relative to cosolvent control (MTT) (15 μM, 390 nm, 0.35s then 490 nm, 3 s (rescue) every 2 min): 0.21 | fold growth relative to cosolvent control (MTT) (15 μM, 410 nm, 0.35 s every 2 min): 0.23 | fold growth relative to cosolvent control (MTT) (15 μM, 410 nm, 0.35 s then 505 nm, 3 s (rescue) every 2 min): 0.24 | fold growth relative to cosolvent control (MTT) (15 μM, 475 nm, 3 s every 2 min): 0.17 | fold growth relative to cosolvent control (MTT) (15 μM, 490 nm, 3 s every 2 min): 0.31 | fold growth relative to cosolvent control (MTT) (15 μM, 505 nm, 3 s every 2 min): 0.20 | fold growth relative to cosolvent control (MTT) (15 μM, 525 nm, 3 s every 2 min): 0.29 | fold growth relative to cosolvent control (MTT) (15 μM, Dark): 0.87
